According to ChEMBL document CHEMBL1795207, “Syntheses of cellotriose and cellotetraose analogues as transition state mimics for mechanistic studies of cellulases” (Bioorg Med Chem, 2011):

Assays:
Endoglucanase-5 [1] = target: T1, Endoglucanase-5 (Mycothermus thermophilus, UniProt P43316); test: Binding affinity to Humicola insolens NCE5 assessed as dissociation constant at pH 3.0 and at 59 degC by differential scanning calorimetry
T1 sequence (P43316 whole entry): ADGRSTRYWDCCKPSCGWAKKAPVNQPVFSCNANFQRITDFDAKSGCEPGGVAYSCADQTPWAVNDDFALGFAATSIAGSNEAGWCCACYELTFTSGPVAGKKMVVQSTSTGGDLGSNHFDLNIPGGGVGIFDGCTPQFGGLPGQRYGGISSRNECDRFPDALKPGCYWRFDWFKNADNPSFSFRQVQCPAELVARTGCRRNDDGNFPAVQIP

Endoglucanase-5 [2] = target: T1, Endoglucanase-5; test: Binding affinity to Humicola insolens NCE5 assessed as dissociation constant at pH 4

Compound	Ki (Endoglucanase-5 [1]) [mM]	Ki (Endoglucanase-5 [2]) [mM]
CO[C@@H]1O[C@H](CO)[C@@H](O[C@@H]2O[C@H](CO)[C@@H](S[C@@H]3O[C@H](CO)[C@@H](O[C@@H]4O[C@H](CO)[C@@H](O)[C@H](O)[C@H]4O)[C@H](O)[C@H]3O)[C@H](O)[C@H]2O)[C@H](O)[C@H]1O	3.9	–
O=C[C@H](O)[C@@H](O)[C@H](O[C@@H]1O[C@H](CO)[C@@H](O[C@@H]2O[C@H](CO)[C@@H](O[C@@H]3O[C@H](CO)[C@@H](O[C@@H]4O[C@H](CO)[C@@H](O[C@@H]5O[C@H](CO)[C@@H](O)[C@H](O)[C@H]5O)[C@H](O)[C@H]4O)[C@H](O)[C@H]3O)[C@H](O)[C@H]2O)[C@H](O)[C@H]1O)[C@H](O)CO [CELLOHEXOSE]	–	0.42
CO[C@H]1O[C@H](CO)[C@@H](S[C@@H]2C=C(CO)[C@@H](O[C@@H]3O[C@H](CO)[C@@H](O)[C@H](O)[C@H]3O)[C@H](O)[C@H]2O)[C@H](O)[C@H]1O	25	–
CO[C@H]1O[C@H](CO)[C@@H](S[C@@H]2O[C@H](CO)[C@@H](O[C@@H]3O[C@H](CO)[C@@H](O)[C@H](O)[C@H]3O)[C@H](O)[C@H]2O)[C@H](O)[C@H]1O	> 30	–
CO[C@@H]1O[C@H](CO)[C@@H](S[C@@H]2C=C(CO)[C@@H](O[C@@H]3O[C@H](CO)[C@@H](O)[C@H](O)[C@H]3O)[C@H](O)[C@H]2O)[C@H](O)[C@H]1O	29	–

Results, then the compound that gave them:

Ki (Endoglucanase-5 [1]) [mM]	Ki (Endoglucanase-5 [2]) [mM]	Compound
> 30	–	CO[C@@H]1O[C@H](CO)[C@@H](S[C@@H]2O[C@H](CO)[C@@H](O[C@@H]3O[C@H](CO)[C@@H](O)[C@H](O)[C@H]3O)[C@H](O)[C@H]2O)[C@H](O)[C@H]1O
1.6	–	CO[C@@H]1O[C@H](CO)[C@@H](O[C@@H]2O[C@H](CO)[C@@H](S[C@@H]3C=C(CO)[C@@H](O[C@@H]4O[C@H](CO)[C@@H](O)[C@H](O)[C@H]4O)[C@H](O)[C@H]3O)[C@H](O)[C@H]2O)[C@H](O)[C@H]1O
